How the values were obtained:
[1] = tested on: Patients undergoing radical retropubic prostatectomy (rrp) without bilateral sparing of the neurovascular bundles; experiment: Clinical trial: recording of nocturnal penile tumescence (NPT) with RigiScan, rrp patients; format: in vivo, human; conditions: rrp patients without nerve sparing, total duration over three nights
Protocol: (§1) To assess the activity of the combination according to the invention for the treatment of erectile dysfunction, a randomised, double-blind placebo-controlled clinical trial was conducted.
(§2) The patients entered into the trial had to meet the following inclusion criteria: • erectile dysfunction secondary to radical retropubic prostatectomy, with or without bilateral sparing of the neurovascular bundles, in patients in whom the prostatectomy had been performed at least 6 months but less than 2 years prior to entry into the clinical trial; • complete erectile function prior to the prostatectomy (this information had to be confirmed by the partner or documented in the patient's hospital file; • not on medical treatment for prostate cancer; • not on treatment for erectile dysfunction before or after prostatectomy; • normal total and free prostate antigen values; • involvement in a heterosexual relationship for at least 6 months prior to surgery.
(§3) The patients recruited into the study were divided into two main groups on the basis of whether or not they had undergone bilateral nerve sparing surgery (rrp and bnsrrp).
(§4) These two groups were further subdivided into the following subsets:
(§5) c) sildenafil 100 mg+propionyl L-carnitine 2 g+acetyl L-carnitine 2 g;
(§6) d) propionyl L-carnitine 2 g;
(§7) e) acetyl L-carnitine 2 g.
(§8) f) propionyl L-carnitine 2 g+acetyl L-carnitine 2 g;
(§9) g) sildenafil 100 mg+propionyl L-carnitine 2 g;
(§10) h) sildenafil 100 mg+acetyl L-carnitine 2 g.
(§11) The carnitines (acetyl L-carnitine and propionyl L-carnitine) were administered orally twice daily (1 g×2/day).
(§12) Sildenafil was administered (as required) and taken 1-2 hours before sexual intercourse at a dose of 100 mg.
(§13) The placebo was administered in the place of acetyl L-carnitine and/or propionyl L-carnitine and/or sildenafil.
(§14) After 4 months' treatment the following variables were analysed:
(§15) 5. recording of nocturnal penile tumescence (NPT) [evaluated with RigiScan (Dacomed-Minnesota). A >70% increase in rigidity compared to baseline at the base of the penis and >60% at the upper end of the penis, a >2 cm increase in circumference at the upper end of the penis and >3 cm at the base were considered “complete erection”. The total duration (minutes) of the recording period on three nights was assessed.

[2] = tested on: Patients undergoing bilateral nerve-sparing radical retropubic prostatectomy (bnsrrp); experiment: Clinical trial: recording of nocturnal penile tumescence (NPT) with RigiScan, bnsrrp patients; format: in vivo, human; conditions: total duration over three nights
Protocol: as §1, §2, §3, §4, §5, §6, §7, §8, §9, §10, §11, §12, §13, §14, §15

[3] = tested on: Patients undergoing bilateral nerve-sparing radical retropubic prostatectomy (bnsrrp); experiment: Randomised, double-blind placebo-controlled clinical trial: IIEF-15 scores after 4 months' treatment, bnsrrp patients; format: in vivo, human
Protocol: as §1, §2, §3, §4, §5, §6, §7, §8, §9, §10, §11, §12, §13, §14
(§16) 1. erectile function (evaluated by “IIEF-15” scores: IIEF=International Index of Erectile Function);
(§17) 2. satisfaction with sexual intercourse (IIEF-15);
(§18) 4. general sexual well-being (IIEF-15);

[4] = tested on: Patients undergoing radical retropubic prostatectomy (rrp) without bilateral sparing of the neurovascular bundles; experiment: Randomised, double-blind placebo-controlled clinical trial: IIEF-15 scores after 4 months' treatment, rrp patients; format: in vivo, human; conditions: rrp patients without nerve sparing
Protocol: as §1, §2, §3, §4, §5, §6, §7, §8, §9, §10, §11, §12, §13, §14, §16, §17, §18

patients undergoing rrp = conditions: cited from earlier work
[5] = tested on: patients undergoing bnsrrp; conditions: cited from earlier work
[6] = after therapy (4 months' treatment)

SMILES	Recording of nocturnal penile tumescence (NPT), mean ± s.d. [1, 6] [min]	Recording of nocturnal penile tumescence (NPT), mean ± s.d. ([1]; before therapy (baseline)) [min]	Recording of nocturnal penile tumescence (NPT), mean ± s.d. [2, 6] [min]	Recording of nocturnal penile tumescence (NPT), mean ± s.d. ([2]; before therapy (baseline)) [min]	Erectile function, mean ± s.d. [3, 6] [IIEF 15 Score]	General sexual well-being, mean ± s.d. [3, 6] [IIEF 15 score]	Orgasm, mean ± s.d. [3, 6] [IIEF 15 score]	Satisfaction with sexual intercourse, mean ± s.d. [3, 6] [IIEF 15 score]	Erectile function, mean ± s.d. ([3]; before therapy (baseline)) [IIEF 15 Score]	General sexual well-being, mean ± s.d. ([3]; before therapy (baseline)) [IIEF 15 score]	Orgasm, mean ± s.d. ([3]; before therapy (baseline)) [IIEF 15 score]	Satisfaction with sexual intercourse, mean ± s.d. ([3]; before therapy (baseline)) [IIEF 15 score]	Erectile function, mean ± s.d. [4, 6] [IIEF 15 score]	General sexual well-being, mean ± s.d. [4, 6] [IIEF 15 score]	Orgasm, mean ± s.d. [4, 6] [IIEF 15 score]	Satisfaction with sexual intercourse, mean ± s.d. [4, 6] [IIEF 15 score]	Erectile function, mean ± s.d. ([4]; before therapy (baseline)) [IIEF 15 score]	General sexual well-being, mean ± s.d. ([4]; before therapy (baseline)) [IIEF 15 score]	Orgasm, mean ± s.d. ([4]; before therapy (baseline)) [IIEF 15 score]	Satisfaction with sexual intercourse, mean ± s.d. ([4]; before therapy (baseline)) [IIEF 15 score]	also measured
CC(=O)O[C@H](CC(=O)[O-])C[N+](C)(C)C [Acetyl L-carnitine 2 g, acetyl L-carnitine]	38.2 ± 5.7	37.7 ± 8.8	79.0 ± 12.3	70.8 ± 14.9	17.2 ± 3.5	3.9 ± 1.1	4.0 ± 0.9	4.0 ± 1.1	11.3 ± 3.8	2.9 ± 1.0	3.2 ± 1.1	3.1 ± 1.1	4.1 ± 1.0	1.2 ± 0.5	0.9 ± 0.4	1.9 ± 0.6	3.2 ± 1.1	1.0 ± 0.4	0.8 ± 0.6	1.8 ± 0.8	–
CCC(=O)O[C@H](CC(=O)[O-])C[N+](C)(C)C [Propionyl L-carnitine 2 g, propionyl L-carnitine]	36.4 ± 5.3	35.0 ± 9.1	77.1 ± 16.1	68.2 ± 13.5	18.1 ± 3.2	4.1 ± 0.9	4.1 ± 1.1	3.9 ± 1.1	12.2 ± 3.9	2.9 ± 1.6	3.0 ± 1.1	3.2 ± 1.2	4.0 ± 1.1	1.4 ± 0.5	1.0 ± 0.3	1.9 ± 0.6	3.3 ± 1.1	1.3 ± 0.5	0.7 ± 0.3	1.7 ± 0.4	–
CCCc1nn(C)c2c(=O)[nH]c(-c3cc(S(=O)(=O)N4CCN(C)CC4)ccc3OCC)nc12 [Sildenafil 100 mg, sildenafil]	39.1 ± 7.9	37.1 ± 8.5	85.9 ± 14.3	70.4 ± 13.2	21.7 ± 6.8	5.4 ± 2.7	5.9 ± 2.9	4.8 ± 2.5	11.9 ± 4.0	2.7 ± 1.0	3.0 ± 0.9	3.1 ± 1.1	9.2 ± 1.9	2.4 ± 2.0	2.2 ± 0.9	2.9 ± 1.6	3.8 ± 2.9	1.1 ± 0.8	0.9 ± 0.6	1.3 ± 0.8	Patients with recovery of sexual function (patients undergoing rrp): approximately 15%; Patients with recovery of sexual function [5]: approximately 45%

Reference: patent US20080090906A1, “Use of Acetyl L-Carnitine In Combination With Propionyl L-Carnitine and Sildenafil for the Treatment of Erectile Dysfunction” (SIGMA-TAU INDUSTRIE FARMACEUTICHE RIUNITE S.P.A., priority 2004, published 2008)
